Test results reported in patent US20070179121A1, “Method of treating pediatric patients with corticosteroids” (priority 2006, published 2007).

How the values were obtained:
Type in all cases: in vivo, human (pediatric patients)
[1] = Skin safety evaluations: signs and symptoms of skin atrophy; conditions: for Patients who showed new signs of skin atrophy at Week 2 not present at Baseline: 5/62
Description: (§1) Patients who met the inclusion/exclusion criteria were randomized to receive topical fluocinonide either qd or bid. Patients/guardians were instructed to apply a thin layer of the study product to all treatable areas once or twice daily for 14 days. If the areas to be treated were hairy, patients/guardians were instructed to part the hair to allow direct contact between the study product and the lesion. Patients/guardians were also instructed not to apply study product to lesions of the face, groin, perianal area, and axillae. At the end of Weeks 1, 2, and 4, patients returned to the study site in order for the investigator to perform designated evaluations, review treatment compliance and concomitant therapy, and to collect information regarding adverse events.
Specific skin safety evaluations were performed at each study visit with regard to all treated lesions by noting the presence or absence of the following 8 signs and symptoms of skin atrophy: telangiectasia, transparency, loss of elasticity, loss of normal skin markings, thinning, striae, pigmentation changes, and bruising.

[2] = Treatment-emergent adverse events
Description: as §1
Adverse events were coded using MedDRA terminology (a standard dictionary of terms used to clarify adverse events) and were described according to their intensity, duration and relationship to the study product.

[3] = Efficacy: investigator rating of atopic dermatitis severity; conditions: for Patients who continued to show an improvement of clear or almost clear compared to Baseline: 2-week follow-up visit
Description: as §1
Efficacy was assessed by observing the change in the severity of atopic dermatitis from Baseline to Week 2 and Week 4. A disease exacerbation requiring more aggressive treatment than previously used was considered an adverse event.
The sole efficacy variable in the study was an investigator rating of skin disease severity performed at Screening, at end of treatment, and at a follow-up visit 4 weeks after the start of study treatment. Fluocinonide administered either qd or bid appears to be effective against atopic dermatitis in children aged 3 months to 17 years. In each of the 4 cohorts of this study, more than 90% of the patients in both the fluocinonide qd and bid group were rated by the investigator as showing an improvement in their disease status or as clear or almost clear of disease at the end of the treatment period. The qd regimen appeared to be as effective as the bid regimen across all age groups.

For CC(=O)OCC(=O)[C@@]12OC(C)(C)O[C@@H]1C[C@H]1[C@@H]3C[C@H](F)C4=CC(=O)C=C[C@]4(C)[C@@]3(F)[C@@H](O)C[C@@]12C [Fluocinonide, pregna-1,4-diene-3,20-dione,21-(acetyloxy)-6,9-difluoro-11-hydroxy-16, 17-[(1-methylethylidene)bis(oxy)]-,(6α., 11β,16α)-], the “Number (%) of patients who showed new signs at Week 2 not present at Baseline” value (“Number (%) … at Week 2 not present at Baseline” for short) ([1]; Cohort 1 (12-<18), bid) was 2 (12.5) Number (%), the “Number (%) … at Week 2 not present at Baseline” value ([1]; Cohort 1 (12-<18), qd) was 2 (13.3) Number (%) and the “Number (%) … at Week 2 not present at Baseline” value ([1]; Cohort 2 (6-<12), bid) was 1 (6.3) Number (%). The “Number (%) … at Week 2 not present at Baseline” value ([1]; Cohort 2 (6-<12), qd) was 0 Number (%), the “Number (%) … at Week 2 not present at Baseline” value ([1]; Cohort 3 (2-<6), bid) was 0 Number (%) and the “Number (%) … at Week 2 not present at Baseline” value ([1]; Cohort 3 (2-<6), qd) was 1 (6.7) Number (%). For the same compound, the “Number (%) … at Week 2 not present at Baseline” value ([1]; Cohort 4 (3 months to <2 year), bid) was 2 (13.3) Number (%), the “Number (%) … at Week 2 not present at Baseline” value ([1]; Cohort 4 (3 months to <2 year), qd) was 2 (12.5) Number (%) and the “Patients who showed new signs of skin atrophy at Week 2 not present at Baseline” value ([1]; bid treatment group overall) was 8.1%. The “Patients who showed new signs of skin atrophy at Week 2 not present at Baseline” value ([1]; qd treatment group overall) was 8.1%, the “Burning Sensation NOS” value ([2]; Cohort 1, bid) was 2 (11.8) Number (%) and the Dermatitis diaper ([2]; Cohort 1, bid) was 0 (0) Number (%). The Folliculitis ([2]; Cohort 1, bid) was 1 (5.9) Number (%), the “Gastroenteritis NOS” value ([2]; Cohort 1, bid) was 0 (0) Number (%) and the Headache ([2]; Cohort 1, bid) was 3 (17.6) Number (%). For the same compound, the “Pain NOS” value ([2]; Cohort 1, bid) was 2 (11.8) Number (%), the Pyrexia ([2]; Cohort 1, bid) was 0 (0) Number (%) and the “Total no. of patients with AEs” value ([2]; Cohort 1, bid) was 9 (52.9) Number (%). For the same compound, the “Upper respiratory tract infection” value ([2]; Cohort 1, bid) was 0 (0) Number (%), the “Burning Sensation NOS” value ([2]; Cohort 1, qd) was 0 (0) Number (%) and the Dermatitis diaper ([2]; Cohort 1, qd) was 0 (0) Number (%). The Folliculitis ([2]; Cohort 1, qd) was 2 (12.5) Number (%), the “Gastroenteritis NOS” value ([2]; Cohort 1, qd) was 0 (0) Number (%) and the Headache ([2]; Cohort 1, qd) was 1 (6.3) Number (%). For the same compound, the “Pain NOS” value ([2]; Cohort 1, qd) was 0 (0) Number (%), the Pyrexia ([2]; Cohort 1, qd) was 0 (0) Number (%) and the “Total no. of patients with AEs” value ([2]; Cohort 1, qd) was 6 (37.5) Number (%). The “Upper respiratory tract infection” value ([2]; Cohort 1, qd) was 0 (0) Number (%), the “Burning Sensation NOS” value ([2]; Cohort 2, bid) was 0 (0) Number (%) and the Dermatitis diaper ([2]; Cohort 2, bid) was 0 (0) Number (%). The Folliculitis ([2]; Cohort 2, bid) was 0 (0) Number (%), the “Gastroenteritis NOS” value ([2]; Cohort 2, bid) was 0 (0) Number (%) and the Headache ([2]; Cohort 2, bid) was 0 (0) Number (%). For the same compound, the “Pain NOS” value ([2]; Cohort 2, bid) was 0 (0) Number (%), the Pyrexia ([2]; Cohort 2, bid) was 0 (0) Number (%) and the “Total no. of patients with AEs” value ([2]; Cohort 2, bid) was 6 (37.5) Number (%). For the same compound, the “Upper respiratory tract infection” value ([2]; Cohort 2, bid) was 1 (6.3) Number (%), the “Burning Sensation NOS” value ([2]; Cohort 2, qd) was 0 (0) Number (%) and the Dermatitis diaper ([2]; Cohort 2, qd) was 0 (0) Number (%). For the same compound, the Folliculitis ([2]; Cohort 2, qd) was 1 (6.3) Number (%), the “Gastroenteritis NOS” value ([2]; Cohort 2, qd) was 0 (0) Number (%) and the Headache ([2]; Cohort 2, qd) was 0 (0) Number (%). The “Pain NOS” value ([2]; Cohort 2, qd) was 1 (6.3) Number (%), the Pyrexia ([2]; Cohort 2, qd) was 0 (0) Number (%) and the “Total no. of patients with AEs” value ([2]; Cohort 2, qd) was 4 (25.0) Number (%). For the same compound, the “Upper respiratory tract infection” value ([2]; Cohort 2, qd) was 0 (0) Number (%), the “Burning Sensation NOS” value ([2]; Cohort 3, bid) was 0 (0) Number (%) and the Dermatitis diaper ([2]; Cohort 3, bid) was 0 (0) Number (%). The Folliculitis ([2]; Cohort 3, bid) was 0 (0) Number (%), the “Gastroenteritis NOS” value ([2]; Cohort 3, bid) was 0 (0) Number (%) and the Headache ([2]; Cohort 3, bid) was 0 (0) Number (%). For the same compound, the “Pain NOS” value ([2]; Cohort 3, bid) was 0 (0) Number (%), the Pyrexia ([2]; Cohort 3, bid) was 0 (0) Number (%) and the “Total no. of patients with AEs” value ([2]; Cohort 3, bid) was 2 (13.3) Number (%). The “Upper respiratory tract infection” value ([2]; Cohort 3, bid) was 0 (0) Number (%), the “Burning Sensation NOS” value ([2]; Cohort 3, qd) was 0 (0) Number (%) and the Dermatitis diaper ([2]; Cohort 3, qd) was 0 (0) Number (%). For the same compound, the Folliculitis ([2]; Cohort 3, qd) was 0 (0) Number (%), the “Gastroenteritis NOS” value ([2]; Cohort 3, qd) was 0 (0) Number (%) and the Headache ([2]; Cohort 3, qd) was 0 (0) Number (%). The “Pain NOS” value ([2]; Cohort 3, qd) was 0 (0) Number (%), the Pyrexia ([2]; Cohort 3, qd) was 0 (0) Number (%) and the “Total no. of patients with AEs” value ([2]; Cohort 3, qd) was 3 (20) Number (%). The “Upper respiratory tract infection” value ([2]; Cohort 3, qd) was 0 (0) Number (%), the “Burning Sensation NOS” value ([2]; Cohort 4, bid) was 0 (0) Number (%) and the Dermatitis diaper ([2]; Cohort 4, bid) was 0 (0) Number (%). The Folliculitis ([2]; Cohort 4, bid) was 0 (0) Number (%), the “Gastroenteritis NOS” value ([2]; Cohort 4, bid) was 0 (0) Number (%) and the Headache ([2]; Cohort 4, bid) was 0 (0) Number (%). The “Pain NOS” value ([2]; Cohort 4, bid) was 0 (0) Number (%), the Pyrexia ([2]; Cohort 4, bid) was 2 (13.3) Number (%) and the “Total no. of patients with AEs” value ([2]; Cohort 4, bid) was 7 (46.7) Number (%). For the same compound, the “Upper respiratory tract infection” value ([2]; Cohort 4, bid) was 1 (6.7) Number (%), the “Burning Sensation NOS” value ([2]; Cohort 4, qd) was 0 (0) Number (%) and the Dermatitis diaper ([2]; Cohort 4, qd) was 2 (12.5) Number (%). For the same compound, the Folliculitis ([2]; Cohort 4, qd) was 0 (0) Number (%), the “Gastroenteritis NOS” value ([2]; Cohort 4, qd) was 2 (12.5) Number (%) and the Headache ([2]; Cohort 4, qd) was 0 (0) Number (%). The “Pain NOS” value ([2]; Cohort 4, qd) was 0 (0) Number (%), the Pyrexia ([2]; Cohort 4, qd) was 2 (12.5) Number (%) and the “Total no. of patients with AEs” value ([2]; Cohort 4, qd) was 8 (50.0) Number (%). The “Upper respiratory tract infection” value ([2]; Cohort 4, qd) was 2 (12.5) Number (%), the “Patients who reported at least one treatment-emergent adverse event (TEAE)” value ([2]; all treated patients, 45 of 126) was 35.7% and the “Deaths or other serious adverse events” value ([2]; whole study) was “No deaths or other serious adverse events”. For the same compound, the “Patients who continued to show an improvement of clear or almost clear compared to Baseline” value (“Patients who continued … compared to Baseline” for short) ([3]; each dosage group in Cohort 1 and Cohort 3) was > 80%, the “Patients who continued … compared to Baseline” value ([3]; each dosage group in Cohort 2) was > 70% and the “Patients who continued … compared to Baseline” value ([3]; each dosage group in Cohort 4) was > 90%. For the same compound, the “Patients rated as showing an improvement in disease status or as clear or almost clear of disease” value (from here on “Patients rated as showing an improvement”) ([3]; end of treatment period vs Baseline, Cohort 1 and Cohort 2, bid) was > 90%, the “Patients rated as showing an improvement” value ([3]; end of treatment period vs Baseline, Cohort 1 and Cohort 2, qd) was “all of the patients” and the “Patients rated as showing an improvement” value ([3]; end of treatment period, Cohorts 3 and 4, both qd and bid groups) was > 90%. The “Patients rated as showing an improvement” value ([3]; end of treatment period, each of the 4 cohorts, both qd and bid group) was “more than 90%”.
